ChEMBL document CHEMBL1157784, “Antitumor activity and COMPARE analysis of bis-indole derivatives” (Bioorg Med Chem, 2010)
Activity calls are given as the source filed them. The calls are words filed in the database; no cut-off is given here.

Key:
[1] = Growth inhibition of human leukemia cell by NCI-CLS assay; type: functional
NSCLC = experiment: Growth inhibition of human NSCLC cell by NCI-CLS assay; type: functional
[2] = Growth inhibition of human colon cancer cell by NCI-CLS assay; type: functional; settings: Cancer cell lines
[3] = Growth inhibition of human CNS cancer cell by NCI-CLS assay; type: functional; settings: Cancer cell lines; for CC50: read-out: LC50 (the source's name)
[4] = Growth inhibition of human melanoma cell by NCI-CLS assay; type: functional; settings: for CC50: read-out: LC50 (the source's name)
[5] = Growth inhibition of human ovarian cancer cell by NCI-CLS assay; type: functional; settings: Cancer cell lines; for CC50: read-out: LC50 (the source's name)
[6] = Growth inhibition of human renal cancer cell by NCI-CLS assay; type: functional; settings: Cancer cell lines; for CC50: read-out: LC50 (the source's name)
[7] = Growth inhibition of human prostate cancer cell by NCI-CLS assay; type: functional; settings: Cancer cell lines; for CC50: read-out: LC50 (the source's name)
[8] = Growth inhibition of human breast cancer cell by NCI-CLS assay; type: functional; settings: Cancer cell lines; for CC50: read-out: LC50 (the source's name)
[9] = Antiproliferative activity against human M07e cells after 2 days by MTT assay; type: functional, cell-based; settings: M-07e, 48 h
[10] = Antiproliferative activity against human B1647 cells after 2 days by MTT assay; type: functional, cell-based; settings: B1647, 48 h
HEL = experiment: Antiproliferative activity against human HEL cells after 2 days by MTT assay; type: functional, cell-based; settings: 48 h
HUVEC = experiment: Cytotoxicity against HUVEC after 2 days by MTT assay; type: cell-based; settings: Homo sapiens, 48 h
[11] = target: NAD(P)H dehydrogenase [quinone] 1 (Homo sapiens) (UniProt P15559); experiment: Induction of NQO1 activity in HUVEC at 5 uM after 24 to 48 hrs by fluorescence plate reader
[12] = Acute toxicity in athymic nude Swiss mouse administered as single dose; type: organism-based; settings: in vivo

NAD(P)H dehydrogenase [quinone] 1 (Homo sapiens), sequence (P15559 whole entry): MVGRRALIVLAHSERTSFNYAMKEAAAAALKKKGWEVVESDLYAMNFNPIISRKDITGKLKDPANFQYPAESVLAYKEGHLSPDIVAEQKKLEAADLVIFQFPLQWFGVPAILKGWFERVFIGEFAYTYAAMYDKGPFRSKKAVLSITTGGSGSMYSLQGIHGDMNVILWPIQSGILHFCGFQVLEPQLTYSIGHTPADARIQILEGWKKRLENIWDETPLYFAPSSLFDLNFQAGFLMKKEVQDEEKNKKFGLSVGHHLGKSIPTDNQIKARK

Compound	GI50 [1] [µM]	TGI [1] [µM]	GI50 (NSCLC) [µM]	LC50 (NSCLC) [µM]	TGI (NSCLC) [µM]	GI50 [2] [µM]	TGI [2] [µM]	GI50 [3] [µM]	TGI [3] [µM]	GI50 [4] [µM]	TGI [4] [µM]	GI50 [5] [µM]	TGI [5] [µM]	GI50 [6] [µM]	TGI [6] [µM]	GI50 [7] [µM]	TGI [7] [µM]	GI50 [8] [µM]	TGI [8] [µM]	Activity [11]	other results
O=C1Nc2cc(OC(F)(F)F)ccc2/C1=C\c1cccc(/C=C2/C(=O)Nc3cc(OC(F)(F)F)ccc32)n1	0.2	8.9	0.4	15.5	1.9	0.2	0.5	0.3	0.8	0.4	1.1	0.4	2.5	0.3	0.7	0.1	0.3	0.3	2	Active	LC50 [2]: 2 µM; CC50 [3]: 2.6 µM; CC50 [4]: 5.7 µM; CC50 [5]: 12.3 µM; CC50 [6]: 2.9 µM; CC50 [7]: 3.2 µM; CC50 [8]: 15.8 µM; IC50 [9]: 3 µM; IC50 [10]: 3 µM; IC50 (HEL): 3 µM; IC50 (HUVEC): < 5 µM
COc1cc2c(c(OC)c1OC)/C(=C\c1cccc(/C=C3/C(=O)Nc4cc(OC)c(OC)c(OC)c43)n1)C(=O)N2	0.2	2.8	0.3	33.1	1.5	0.2	0.5	0.3	0.8	0.2	0.5	0.3	0.8	0.3	0.7	0.3	1	0.2	1.5	Active	LC50 [1]: 67.6 µM; LC50 [2]: 7.2 µM; CC50 [3]: 3.2 µM; CC50 [4]: 2.7 µM; CC50 [5]: 5.7 µM; CC50 [6]: 4.5 µM; CC50 [7]: 16.6 µM; CC50 [8]: 24.6 µM; MTD [12]: 100 mg/kg; IC50 [9]: 1 µM; IC50 [10]: 1 µM; IC50 (HEL): 1 µM; IC50 (HUVEC): < 5 µM
C[S+]([O-])CCCCN=C=S (stereo not drawn)																				Active	
O=C1Nc2cccc(F)c2C1=Cc1cccc(C=C2C(=O)Nc3cccc(F)c32)n1	0.8	9.8	2		10.2	0.7	3.3	1.1	5.7	0.9	2.8	1.6	8.5	1.1	3.8	1.4	12.9	0.8	10		
